# In patent US6737410B1, “Inhibitors of protein farnesyl transferase” (Warner-Lambert Company, priority 1997, dated 2004):
# Like-named read-outs stand apart in the source and are kept apart here.
# Key:
# [1] = tested on: ras protein farnesylation in ras-transformed cells (H-ras-transformed HIH 3T3 cells); test: Gel shift assay (inhibition of ras farnesylation in cells); format: cell-based; conditions: for Gel Shift (μM) M.E.D* (minimal effective dose to observe inhibition of ras farnesylation): ras-transformed cells, 18-hour incubation
# Procedure: Twenty-four hours after planting 2×10^6 ras-transformed cells per treatment condition, the farnesylation inhibitor is added at varying concentrations. Following an 18-hour incubation period, cells are lysed in phosphate-buffered saline containing 1% Triton X-100, 0.5% sodium deoxycholate, and 0.1% SDS (sodium dodecyl sulfate), pH 7.4 in the presence of several protease inhibitors (PMSF (phenylmethylsulfonylfluoride), antipain, leupeptin, pepstatin A, and aprotinin all at 1 μg/mL). Ras protein is immunoprecipitated from the supernatants by the addition of 3 μg v-H-ras Ab-2 (Y13-259 antibody from Oncogene Science). After overnight immunoprecipitation, 30 μL of a 50% protein G-Sepharose slurry (Pharmacia) is added followed by 45-minute incubation. Pellets are resuspended in 2×tris-glycine loading buffer (Novex) containing 5% β-mercaptoethanol and then denatured by 5 minutes boiling prior to electrophoresis on 14% Tris-glycine SDS gels. Using Western transfer techniques, proteins are transferred to nitrocellulose membranes followed by blocking in blocking buffer. Upon overnight incubation with primary antibody (pan-ras Ab-2 from Oncogene Science), an antimouse HRP (horse radish peroxidase) conjugate secondary antibody (Amersham) is employed for detection of the ras protein. Blots are developed using ECL(enhanced chemiluminescence) techniques (Amersham).
# [2] = target: T1, SF9 affinity purified rat farnesyl protein transferase (Rattus norvegicus, UniProt Q02293+Q04631); test: PFT (farnesyl protein transferase) inhibitory activity assay; format: biochemical
# T1 construct: made in house; host or cells: Sf9 insect cells
# Procedure: The protein:farnesyl transferase (PFT) or farnesyl protein transferase (FPT) inhibitory activity of compounds of the present invention were assayed in HEPES buffer (pH 7.4) containing 5 mM potassium phosphate and 20 μM ZnCl2. The solution also contained 5 mM DTT (dithiothreitol), 5 mM MgCl2, and 0.1% PEG 8000. Assays were performed in 96-well plates (Wallec) and employed solutions composed of varying concentrations of a compound of the present invention in 100% DMSO (dimethylsulfoxide). Upon addition of both substrates, radiolabeled farnesyl pyrophosphate ([1^3H], specific activity 15 to 30 Ci/mmol, final concentration 134 nM) and (biotinyl)-Ahe-Thr-Lys-Cys-Val-Ile-Met ([3aS[3a alpha, 4 beta, 6a alpha]-hexahydro-2-oxo-1H-thieno[3,4-d]imidazole-5-pentanoic acid]-[7-aminoheptanoic acid]-Thr-Lys-Cys-Val-Ile-Met) (Ahe is 7-amino-heptanoic acid, Thr is threonine, Lys is lysine, Cys is cysteine, Val is valine, Ile is isoleucine and Met is methionine) (final concentration 0.2 μM), the enzyme reaction was started by addition of SF9 affinity purified rat farnesyl protein transferase. After incubation at 30° C. for 30 minutes, the reaction was terminated by diluting the reaction 2.5-fold with a stop buffer containing 1.5 M magnesium acetate, 0.2 M H3PO4, 0.5% BSA (bovine serum albumin), and strepavidin beads (Amersham) at a concentration of 1.3 mg/mL. After allowing the plate to settle for 30 minutes at room temperature, radioactivity was quantitated on a microBeta counter (Model 1450, Wallec). The assay was also carried out without 5 mM potassium phosphate.
# [3] = tested on: human lung carcinoma with K-ras mutation and p53 deletion; conditions: nude mice; cited from earlier work
# [4] = tested on: H61 cells: N1H transformed 3T3 H-ras cells; test: Clonogenic assay (soft agar, 6 well plates); format: cell-based; conditions: H-ras transformed NIH 3T3 cells, colonies counted after Day 13, read-out: Soft Agar IC50 (μM), inhibition of colony formation
# Procedure: Clonogenic Assay (6 Well Plates)
# Sometime previous to setting up an actual test:
# 1. Make up 1.5% Bacto Agar in Milli-Q water and autoclave.
# 2. Make up 500 mL 2×DMEM-HG without phenol red by combining the following:
# 1 bottle DMEM base powder (Sigma D-5030)
# Adjust pH to 7.1 with HCl; filter sterilize.
# 1. Set up makeshift water bath (beaker of water with thermometer, on hot plate) in the hood. Keep water temperature between 37° C. to 43° C.
# 2. […] 1.5% Bacto Agar for approximately 2 minutes on high, or until completely melted. Then let it cool somewhat before using it. (You can keep it from resolidifying by setting the bottle on the hot plate.)
# Depending on the volume of each layer needed, use either 50 mL conical tubes or 200 mL turnip tubes which can be floated in the “water bath”.
# 4. Add 1 mL of bottom layer agar/medium to each well: deliver 1 mL warm agar/medium to a well; then using the tip of the pipet, spread the agar/medium around to completely cover the bottom. Repeat with next well.
# 5. Allow the plates to set at room temperature for about 5 minutes until the bottom layer solidifies.
# 6. Label sterile Falcon 2054 (12×75 mm) tubes and add appropriate volume of drug solutions into them.
# 7. Aliquot 4 μL of DMSO or drug solution per 1 mL of agar/medium to appropriate tubes; then add the agar/medium/cells to each tube. Always add 1 mL more than will actually be needed. Mix up and down in the pipet (gently); then deliver 1 mL to the center of each well. The upper layer is less viscous, so it will generally spread out over the bottom layer unaided. If necessary, rotate the plane of the plate gently to spread the top layer evenly over the bottom layer.
# 8. Let plates set for 5 or 10 minutes at room temperature to solidify, then put into 5% CO2, 37° C. incubator.
# 9. On Day 13, add 0.5 mL of INT (tetrazolium 1 mg/mL in Milli-Q H2O, filter sterilized) and return plates to incubator.
# [5] = tested on: EJ-1 human bladder carcinoma, HT1080 human fibrosarcoma, and human colon carcinoma xenografts; conditions: 100 mg/kg, nude mice; cited from earlier work
# [6] = tested on: mammary and salivary carcinomas; conditions: daily administration, ras transgenic mice; cited from earlier work
# [7] = HEPES buffer pH 7.4, without 5 mM potassium phosphate, read-out: IC50 (μM) Hepes
# [8] = HEPES buffer pH 7.4 containing 5 mM potassium phosphate, read-out: IC50 (μM) 5 mM PO4•^2 Hepes
# [9] = Example 2 compared with Example 1
SMILES,Gel Shift (μM) M.E.D* (minimal effective dose to observe inhibition of ras farnesylation) [1],"IC50 [2, 7] [µM]","IC50 [2, 8] [µM]",further results
"CC(C)C[C@@H](C(=O)NCC(C)(C)c1ccccc1)N(C)C(=O)[C@H](Cc1cnc[nH]1)NC(=O)OCc1ccccc1 [Example 8, [S-(R*,R*)]-(2-(3H-Imidazol-4-yl)-1-{methyl-[3-methyl-1-(2-methyl-2-phenyl-propylcarbamoyl)-butyl]-carbamoyl}-ethyl)-carbamic acid benzyl ester]",≦0.05 μM,1.76,0.01,
CSCC[C@H](NC(=O)c1ccc(NC[C@@H](N)CS)cc1-c1ccccc1)C(=O)O [FT1276],,,,tumor growth of human lung carcinoma [3]: selectively block tumor growth
"CN(C(=O)[C@H](Cc1c[nH]cn1)NC(=O)OCc1ccccc1)[C@@H](Cc1ccc(OCc2ccccc2)cc1)C(=O)NCCc1ccccc1 (relative stereo) [Example 2, [S-(R*,R*)]-[1-{[2-(4-Benzyloxy-phenyl)-1-phenethylcarbamoyl-ethyl]-methyl-carbamoyl}-2-(1H-imidazol-4-yl)-ethyl]-carbamic acid benzyl ester]",0.2 µM,1.4,0.032,"increase in cellular activity [1, 9]: 5 fold; IC50 [4]: 0.58 µM; increase in activity against the enzyme [2, 9]: 10 fold"
COC(=O)[C@H](CCSC)NC(=O)[C@H](/C=C\[C@@H](/C=C/[C@@H](N)CS)C(C)C)Cc1ccccc1 [Example B1086],,,,tumor growth by xenografts [5]: inhibit tumor growth
"CN(Cc1ccccc1)C(=O)N[C@@H](Cc1c[nH]cn1)C(=O)N(C)[C@@H](Cc1ccc(OCc2ccccc2)cc1)C(=O)NCC(C)(C)c1ccccc1 [Example 5, [S-(R*,R*)]-2(3-Benzyl-3-methyl-ureido)-N-[2-(4-benzyloxy-phenyl)-1-(2-methyl-2-phenyl-propyl-carbamoyl)-ethyl]-3-(1H-imidazol-4-yl)-N-methyl-propionamide]",≦0.05 μM,0.012,0.008,
"CC[C@H](C)[C@@H](CO[C@@H](Cc1ccccc1)C(=O)N[C@@H](CCS(C)(=O)=O)C(=O)OC(C)C)NC[C@@H](N)CS [L744,832]",,,,effect on mammary and salivary carcinomas [6]: tumor regression
"CN(C(=O)[C@H](Cc1c[nH]cn1)NC(=O)OCc1ccccc1)[C@@H](Cc1ccc(OCc2ccccc2)cc1)C(=O)NCC(C)(C)c1ccccc1 [Example 3, [S-(R*,R*)]-[1-{[2-(4-Benzyloxy-phenyl)-1-(2-methyl-2-phenyl-propylcarbamoyl)-ethyl]-methyl-carbamoyl}-2-(1H-imidazol-4-yl)-ethyl]-carbamic acid benzyl ester]",0.05 µM,0.31,0.007,"IC50 ([4]; Mus musculus, NIH3T3, 312 h): 0.1 µM"
"CN(C(=O)[C@H](Cc1cnc[nH]1)NC(=O)OCc1ccccc1)[C@@H](Cc1ccccc1)C(=O)NCC(C)(C)c1ccccc1 [Example 7, [S-(R*,R*)]-(2-(3H-Imidazol-4-yl)-1-{methyl-[1-(2-methyl-2-phenyl-propyl-carbamoyl)-2-phenyl-ethyl]-carbamoyl}-ethyl)-carbamic acid benzyl ester]",≦0.05 μM,0.26,0.005,
"CN(C(=O)[C@H](Cc1cnc[nH]1)NC(=O)OCc1ccccc1)[C@@H](Cc1ccc(OCc2ccccc2)cc1)C(=O)NCC1(c2ccccc2)CCC1 (relative stereo) [Example 6, [S-(R*,R*)]-[1-{[2-4-Benzyloxy-phenyl)-1-[(1-phenyl-cyclobutylmethyl)-carbamoyl]-ethyl}-methyl-carbamoyl)-2-(3H-imidazol-4-yl)-ethyl]-carbamic acid benzyl ester]",≦0.05 μM,1.01,0.013,
"CN(C(=O)[C@H](Cc1c[nH]cn1)NC(=O)OCc1ccccc1)[C@@H](Cc1ccc(OCc2ccccn2)cc1)C(=O)NCC(C)(C)c1ccccc1 [Example 4, [S-(R*,R*)]-[2-(1H-Imidazol-4-yl)-1-(methyl-{1-(2-methyl-2-phenyl-propylcarbamoyl)-2-[4-(pyridin-2-ylmethoxy)-phenyl]-ethyl}-carbamoyl)-ethyl]-carbamic acid benzyl ester]",≦0.05 μM,0.38,0.006,
"CN(C(=O)[C@@H](Cc1c[nH]cn1)NC(=O)OCc1ccccc1)[C@@H](Cc1ccc(OCc2ccccc2)cc1)C(=O)NCCOCc1ccccc1 (relative stereo) [Example 1, [R-(R*,S*)]-[1-{[1-(2-Benzyloxy-ethylcarbamoyl)-2-(4-benzyloxy-phenyl)-ethyl]-methyl-carbamoyl}-2-(1H-imidazol-4-yl)-ethyl]-carbamic acid benzyl ester]",1 µM,7,0.4,IC50 [4]: 15.1 µM; activity as a ras farnesyl transferase inhibitor ([2]; stated in words): submicromolar
